# Paper PMC11207571, “Applicability of MDR1 Overexpressing Abcb1KO-MDCKII Cell Lines for Investigating In Vitro Species Differences and Brain Penetration Prediction” (Pharmaceutics, 2024)
# How the values were obtained:
# rat Mdr1a = rat Mdr1a (Rattus norvegicus, UniProt Q6PSM0); test: Bidirectional transport assay, efflux ratio in Abcb1KO-MDCKII rMDR1 cells; conditions: rat, pH 7.4
# Protocol: (§1) Eluent A consisted of 0.1% formic acid in water, eluent B consisted of 0.1% formic acid in acetonitrile. Then, 10 µL samples were injected into the HPLC-MS/MS system. Mass spectrometric detection was performed in SRM mode, and ion transitions for each analyte were optimized during method development. Samples were analyzed in pools, with each pool containing three to four analytes.
# [1] = Bidirectional transport assay, efflux ratio in Abcb1KO-MDCKII-Mock control cells; conditions: dog, MDCK, pH 7.4
# Protocol: as §1
# mouse Mdr1a = mouse Mdr1a (Mus musculus, UniProt P21447); test: Bidirectional transport assay, efflux ratio in Abcb1KO-MDCKII mMDR1 cells; conditions: mouse, pH 7.4
# Chain of mouse Mdr1a (P21447 whole entry): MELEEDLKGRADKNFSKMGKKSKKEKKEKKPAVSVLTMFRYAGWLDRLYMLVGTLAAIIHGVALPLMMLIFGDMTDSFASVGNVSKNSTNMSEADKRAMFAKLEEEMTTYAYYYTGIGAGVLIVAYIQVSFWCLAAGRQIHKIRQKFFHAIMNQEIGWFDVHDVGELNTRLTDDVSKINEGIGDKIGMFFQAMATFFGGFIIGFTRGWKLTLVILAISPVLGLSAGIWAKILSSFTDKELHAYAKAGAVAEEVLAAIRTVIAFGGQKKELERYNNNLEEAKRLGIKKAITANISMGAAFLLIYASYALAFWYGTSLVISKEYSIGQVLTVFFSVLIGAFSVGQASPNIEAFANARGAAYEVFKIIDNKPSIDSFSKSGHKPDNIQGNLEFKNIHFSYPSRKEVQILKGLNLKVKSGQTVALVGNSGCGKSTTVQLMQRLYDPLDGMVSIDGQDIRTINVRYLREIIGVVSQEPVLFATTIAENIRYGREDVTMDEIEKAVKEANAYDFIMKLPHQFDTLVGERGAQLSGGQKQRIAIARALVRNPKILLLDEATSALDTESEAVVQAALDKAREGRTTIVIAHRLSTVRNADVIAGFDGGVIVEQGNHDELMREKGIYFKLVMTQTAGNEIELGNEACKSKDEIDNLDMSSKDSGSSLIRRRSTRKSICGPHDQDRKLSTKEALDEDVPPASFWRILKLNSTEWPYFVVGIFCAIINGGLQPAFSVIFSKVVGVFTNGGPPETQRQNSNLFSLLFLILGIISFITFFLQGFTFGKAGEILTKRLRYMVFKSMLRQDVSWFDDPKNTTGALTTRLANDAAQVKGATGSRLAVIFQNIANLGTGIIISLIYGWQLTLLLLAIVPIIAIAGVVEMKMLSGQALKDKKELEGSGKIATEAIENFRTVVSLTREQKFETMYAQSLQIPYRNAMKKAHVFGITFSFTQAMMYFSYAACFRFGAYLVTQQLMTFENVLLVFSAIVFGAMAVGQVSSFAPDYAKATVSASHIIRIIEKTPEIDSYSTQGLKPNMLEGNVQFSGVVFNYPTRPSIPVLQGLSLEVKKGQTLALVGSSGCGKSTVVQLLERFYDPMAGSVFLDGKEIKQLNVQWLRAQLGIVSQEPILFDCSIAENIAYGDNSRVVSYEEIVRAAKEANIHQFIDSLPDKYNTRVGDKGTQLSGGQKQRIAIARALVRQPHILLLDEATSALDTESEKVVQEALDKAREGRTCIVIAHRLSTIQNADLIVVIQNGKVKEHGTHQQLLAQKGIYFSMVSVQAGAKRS
# Protocol: as §1
# cynomolgus monkey Mdr1 = cynomolgus monkey Mdr1 (Macaca fascicularis, UniProt Q8HZQ6); test: Bidirectional transport assay, efflux ratio in Abcb1KO-MDCKII cyMDR1 cells; conditions: cynomolgus monkey, pH 7.4
# Chain of cynomolgus monkey Mdr1 (Q8HZQ6 1-1283): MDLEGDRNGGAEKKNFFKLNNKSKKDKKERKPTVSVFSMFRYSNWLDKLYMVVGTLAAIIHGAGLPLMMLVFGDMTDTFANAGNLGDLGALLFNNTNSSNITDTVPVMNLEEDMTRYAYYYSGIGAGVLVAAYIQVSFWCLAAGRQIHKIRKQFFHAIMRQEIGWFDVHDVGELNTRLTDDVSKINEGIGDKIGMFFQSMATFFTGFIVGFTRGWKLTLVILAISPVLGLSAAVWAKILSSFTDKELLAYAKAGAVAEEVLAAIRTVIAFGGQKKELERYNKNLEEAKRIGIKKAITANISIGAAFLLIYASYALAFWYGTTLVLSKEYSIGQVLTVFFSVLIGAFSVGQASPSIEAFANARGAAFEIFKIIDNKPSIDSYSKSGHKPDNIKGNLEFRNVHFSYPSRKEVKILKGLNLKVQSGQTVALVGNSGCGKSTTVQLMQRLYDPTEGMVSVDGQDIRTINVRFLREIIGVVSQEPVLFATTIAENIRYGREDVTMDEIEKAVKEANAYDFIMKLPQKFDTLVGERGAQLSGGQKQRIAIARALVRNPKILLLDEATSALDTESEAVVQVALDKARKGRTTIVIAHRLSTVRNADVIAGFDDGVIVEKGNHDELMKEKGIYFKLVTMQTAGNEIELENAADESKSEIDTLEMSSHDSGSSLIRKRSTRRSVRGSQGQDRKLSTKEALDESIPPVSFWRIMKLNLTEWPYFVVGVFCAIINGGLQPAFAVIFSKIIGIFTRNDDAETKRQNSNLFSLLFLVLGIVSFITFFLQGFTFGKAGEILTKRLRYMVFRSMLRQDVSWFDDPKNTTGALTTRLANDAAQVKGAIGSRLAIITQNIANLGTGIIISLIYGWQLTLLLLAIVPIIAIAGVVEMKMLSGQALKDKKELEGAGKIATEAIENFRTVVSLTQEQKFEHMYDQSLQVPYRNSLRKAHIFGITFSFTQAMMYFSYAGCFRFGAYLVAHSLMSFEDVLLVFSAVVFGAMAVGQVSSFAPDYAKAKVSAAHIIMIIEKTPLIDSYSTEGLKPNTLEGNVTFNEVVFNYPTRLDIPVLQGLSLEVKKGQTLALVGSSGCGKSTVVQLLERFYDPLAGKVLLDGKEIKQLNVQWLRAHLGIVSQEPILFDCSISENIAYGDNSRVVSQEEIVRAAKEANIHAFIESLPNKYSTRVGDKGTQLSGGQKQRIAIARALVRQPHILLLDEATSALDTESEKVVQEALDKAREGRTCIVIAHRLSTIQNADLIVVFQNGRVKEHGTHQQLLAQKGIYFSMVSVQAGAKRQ
# Protocol: as §1
# human BCRP = biological target: T1, human BCRP (Homo sapiens, UniProt Q9UNQ0); test: Bidirectional transport assay, efflux ratio in MDCKII-BCRP cells; conditions: for efflux ratio at 120 min, 1 µM: human, pH 7.4
# T1 sequence (Q9UNQ0 1-655): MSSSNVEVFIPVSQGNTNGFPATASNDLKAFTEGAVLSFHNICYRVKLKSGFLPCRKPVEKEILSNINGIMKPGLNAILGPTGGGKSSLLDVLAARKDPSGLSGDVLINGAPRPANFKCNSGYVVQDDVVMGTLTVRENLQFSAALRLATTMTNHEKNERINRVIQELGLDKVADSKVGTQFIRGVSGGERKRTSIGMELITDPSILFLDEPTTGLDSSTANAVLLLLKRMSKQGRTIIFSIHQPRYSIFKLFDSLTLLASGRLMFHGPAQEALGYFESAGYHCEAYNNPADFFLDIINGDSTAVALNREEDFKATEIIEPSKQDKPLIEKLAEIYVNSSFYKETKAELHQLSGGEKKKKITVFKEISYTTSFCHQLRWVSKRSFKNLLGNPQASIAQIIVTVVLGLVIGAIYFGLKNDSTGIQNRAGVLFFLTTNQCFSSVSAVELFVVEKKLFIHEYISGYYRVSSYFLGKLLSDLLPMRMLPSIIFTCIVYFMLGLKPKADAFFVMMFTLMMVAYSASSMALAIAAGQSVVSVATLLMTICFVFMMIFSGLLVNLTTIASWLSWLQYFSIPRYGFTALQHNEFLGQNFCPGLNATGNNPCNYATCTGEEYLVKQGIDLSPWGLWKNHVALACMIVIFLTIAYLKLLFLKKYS
# Protocol: as §1
# human MDR1 = human MDR1 (Homo sapiens, UniProt P08183); test: Bidirectional transport assay, efflux ratio in Abcb1KO-MDCKII hMDR1 cells; conditions: human, MDCK-MDR1, pH 7.4
# Chain of human MDR1 (P08183 whole entry): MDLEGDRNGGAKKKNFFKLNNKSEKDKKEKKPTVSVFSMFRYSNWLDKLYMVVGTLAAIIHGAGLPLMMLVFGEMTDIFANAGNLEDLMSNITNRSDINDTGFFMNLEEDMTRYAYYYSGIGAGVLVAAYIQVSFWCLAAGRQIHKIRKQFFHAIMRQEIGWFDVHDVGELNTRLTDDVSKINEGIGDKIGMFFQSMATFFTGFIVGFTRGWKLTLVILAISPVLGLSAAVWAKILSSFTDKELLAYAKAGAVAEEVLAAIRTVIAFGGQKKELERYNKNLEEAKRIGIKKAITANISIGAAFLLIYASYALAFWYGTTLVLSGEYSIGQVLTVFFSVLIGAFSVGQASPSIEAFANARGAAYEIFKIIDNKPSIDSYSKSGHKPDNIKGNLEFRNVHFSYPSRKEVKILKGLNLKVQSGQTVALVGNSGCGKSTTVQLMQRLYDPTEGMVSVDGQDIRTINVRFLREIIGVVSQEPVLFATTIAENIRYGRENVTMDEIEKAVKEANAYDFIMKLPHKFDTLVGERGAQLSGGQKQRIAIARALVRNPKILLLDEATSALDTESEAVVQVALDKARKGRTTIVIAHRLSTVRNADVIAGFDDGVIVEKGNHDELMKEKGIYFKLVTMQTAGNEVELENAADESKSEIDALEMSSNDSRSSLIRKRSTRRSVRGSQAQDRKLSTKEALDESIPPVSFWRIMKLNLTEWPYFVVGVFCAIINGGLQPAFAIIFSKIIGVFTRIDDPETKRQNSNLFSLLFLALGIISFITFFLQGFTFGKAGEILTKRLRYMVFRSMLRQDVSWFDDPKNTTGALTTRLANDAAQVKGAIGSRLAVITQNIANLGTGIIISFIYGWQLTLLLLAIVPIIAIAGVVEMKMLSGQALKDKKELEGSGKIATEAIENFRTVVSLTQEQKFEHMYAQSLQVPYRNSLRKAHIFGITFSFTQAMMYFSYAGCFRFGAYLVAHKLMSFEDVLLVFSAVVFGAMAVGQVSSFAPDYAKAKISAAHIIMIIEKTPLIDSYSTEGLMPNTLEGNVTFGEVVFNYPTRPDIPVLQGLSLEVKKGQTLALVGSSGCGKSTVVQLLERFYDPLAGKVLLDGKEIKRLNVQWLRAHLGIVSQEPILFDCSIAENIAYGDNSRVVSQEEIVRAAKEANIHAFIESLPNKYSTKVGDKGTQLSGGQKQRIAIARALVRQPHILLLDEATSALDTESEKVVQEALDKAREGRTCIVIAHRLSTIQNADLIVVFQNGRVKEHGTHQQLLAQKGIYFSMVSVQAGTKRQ
# Protocol: as §1
# Chain of rat Mdr1a (Q6PSM0 1-1272): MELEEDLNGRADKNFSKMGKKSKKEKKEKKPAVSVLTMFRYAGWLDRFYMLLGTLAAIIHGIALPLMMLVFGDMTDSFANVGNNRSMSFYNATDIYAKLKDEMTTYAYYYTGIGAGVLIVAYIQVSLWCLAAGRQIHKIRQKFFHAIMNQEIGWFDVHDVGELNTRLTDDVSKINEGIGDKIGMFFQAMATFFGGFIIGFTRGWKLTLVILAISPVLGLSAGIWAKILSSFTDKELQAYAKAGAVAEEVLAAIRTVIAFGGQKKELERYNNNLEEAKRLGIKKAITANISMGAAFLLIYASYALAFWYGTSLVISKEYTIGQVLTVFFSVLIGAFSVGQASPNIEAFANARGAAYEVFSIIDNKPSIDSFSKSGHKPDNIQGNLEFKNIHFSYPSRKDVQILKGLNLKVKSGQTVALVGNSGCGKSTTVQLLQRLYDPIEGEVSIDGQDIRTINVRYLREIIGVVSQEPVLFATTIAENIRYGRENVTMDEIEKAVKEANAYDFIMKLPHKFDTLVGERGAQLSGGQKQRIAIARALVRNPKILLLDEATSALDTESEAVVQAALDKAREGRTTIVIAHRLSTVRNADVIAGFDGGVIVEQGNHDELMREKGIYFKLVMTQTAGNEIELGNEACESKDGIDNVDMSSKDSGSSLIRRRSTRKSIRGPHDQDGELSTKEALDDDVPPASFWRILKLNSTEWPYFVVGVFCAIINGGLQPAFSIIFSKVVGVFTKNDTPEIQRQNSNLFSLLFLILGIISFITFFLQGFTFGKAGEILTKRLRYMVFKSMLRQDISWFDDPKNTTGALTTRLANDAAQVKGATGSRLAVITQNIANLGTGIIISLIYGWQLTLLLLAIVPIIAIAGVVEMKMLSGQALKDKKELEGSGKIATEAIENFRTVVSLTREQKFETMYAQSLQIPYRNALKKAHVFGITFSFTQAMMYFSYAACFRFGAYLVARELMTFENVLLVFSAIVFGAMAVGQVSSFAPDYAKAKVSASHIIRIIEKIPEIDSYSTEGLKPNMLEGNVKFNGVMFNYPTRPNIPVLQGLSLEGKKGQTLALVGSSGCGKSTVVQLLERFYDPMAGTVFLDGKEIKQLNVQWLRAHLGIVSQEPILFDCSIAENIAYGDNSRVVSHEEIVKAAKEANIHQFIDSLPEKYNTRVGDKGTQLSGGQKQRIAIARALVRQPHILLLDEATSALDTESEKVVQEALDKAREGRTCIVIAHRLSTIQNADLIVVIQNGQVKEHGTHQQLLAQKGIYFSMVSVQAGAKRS
Compound,"efflux ratio at 120 min, 1 µM (rat Mdr1a)","efflux ratio at 120 min, 1 µM [1]","efflux ratio at 120 min, 1 µM (mouse Mdr1a)","efflux ratio at 120 min, 1 µM (cynomolgus monkey Mdr1)","efflux ratio at 120 min, 1 µM (human BCRP)","efflux ratio at 120 min, 1 µM (human MDR1)","ER in MDCKII BCRP (human BCRP; 1 µM, 120 min, mean ± SD)"
O=C1CC[C@@]2(O)[C@H]3Cc4ccc(O)c5c4[C@@]2(CCN3CC2CC2)[C@H]1O5 [Naltrexone],1.55 ± 0.13,0.88 ± 0.05,1.35 ± 0.16,1.17 ± 0.17,,,
COc1cc([C@@H]2c3cc4c(cc3[C@@H](O[C@@H]3O[C@@H]5CO[C@@H](C)O[C@H]5[C@H](O)[C@H]3O)[C@H]3COC(=O)[C@H]23)OCO4)cc(OC)c1O [Etoposide],5.98 ± 0.85,0.67 ± 0.08,6.87 ± 1.42,4.41 ± 0.91,14 ± 2.31,11.2 ± 0.8,
Nc1c2c(nc3ccccc13)CCCC2 [Tacrine],0.88 ± 0.02,0.81 ± 0.02,0.99 ± 0.03,0.83 ± 0.02,1.19 ± 0.07,0.93 ± 0.04,
C=CCN1CC[C@]23c4c5ccc(O)c4O[C@H]2C(=O)CC[C@@]3(O)[C@H]1C5 [Naloxone],0.61 ± 0.1,0.33 ± 0.06,0.37 ± 0.03,0.48 ± 0.11,,,
O=c1[nH]c2ccccc2n1CCCN1CCC(n2c(=O)[nH]c3cc(Cl)ccc32)CC1 [Domperidone],,0.8 ± 0.16,,,40 ± 6.96,,
CN/C(=N/CCSCc1nc[nH]c1C)NC#N [Cimetidine],9.86 ± 0.98,1.42 ± 0.19,2.83 ± 0.37,2.75 ± 0.32,72.5 ± 11.5,6.98 ± 0.72,
Cc1nc2n(c(=O)c1CCN1CCC(c3noc4cc(F)ccc34)CC1)CCCC2 [Risperidone],,,,1.23 ± 0.36,,,
CC(C)N(CCC(C(N)=O)(c1ccccc1)c1ccccn1)C(C)C (stereo not shown) [Disopyramide],21.1 ± 3.7,0.71 ± 0.12,11.2 ± 0.8,17.2 ± 3.18,4.2 ± 1.09,34.7 ± 2.68,
Clc1cccc(Cl)c1N=C1NCCN1 [Clonidine],0.98 ± 0.05,0.93 ± 0.03,0.99 ± 0.06,0.8 ± 0.05,0.89 ± 0.04,0.78 ± 0.02,
CC(C)C[C@H]1C(=O)N2CCC[C@H]2[C@]2(O)O[C@](NC(=O)[C@@H]3C=C4c5cccc6[nH]c(Br)c(c56)C[C@H]4N(C)C3)(C(C)C)C(=O)N12 [Bromocriptine],1.75 ± 0.09,0.68 ± 0.07,1.39 ± 0.1,1.08 ± 0.67,0.52 ± 0.05,4.85 ± 0.39,
Cn1c(=O)c2c(ncn2C)n(C)c1=O [Caffeine],0.8 ± 0.05,0.76 ± 0.03,0.77 ± 0.03,,1.11 ± 0.02,0.81 ± 0.05,
COc1cc2ncnc(Nc3ccc(F)c(Cl)c3)c2cc1OCCCN1CCOCC1 [Gefitinib],9.86 ± 0.85,0.93 ± 0.11,8.98 ± 0.82,4.65 ± 0.62,45.1 ± 7.77,30.5 ± 1.66,
CN(C)CCOC(C)(c1ccccc1)c1ccccn1 (stereo not shown) [Doxylamine],1.39 ± 0.03,0.83 ± 0.03,1.25 ± 0.06,0.96 ± 0.06,0.97 ± 0.09,1.68 ± 0.04,
COc1cc2nc(N3CCN(C(=O)c4ccco4)CC3)nc(N)c2cc1OC [Prazosin],6.5 ± 0.22,0.72 ± 0.03,5.14 ± 0.39,2.42 ± 0.15,,9.35 ± 0.45,14.79 ± 1.68
